Numbered stars: 1 amine (or outer) side, 2 acyl side, 3 side chain; on linkers, the order of the positions; unused ones are H or OH. Bridge positions count the residues as written; N and C are the ends. Square brackets hold non-standard residues; d marks the D form. Peptide text beside a SMILES is read from it. ξ: configuration not given here. dPhe(4-Cl) = N[C@H](Cc1ccc(Cl)cc1)C(=O)O; 2Nal = N[C@@H](Cc1ccc2ccccc2c1)C(=O)O; Suc = O=C(CCC(=O)[*:2])[*:1]; ξE = NC(CCC(=O)O)C(=O)O; ξDab = NCCC(N)C(=O)O; ξK = NCCCCC(N)C(=O)O; ξDap = NCC(N)C(=O)O; Ava = NCCCCC(=O)O; GABA = NCCCC(=O)O
Key:
[1] = biological target: T1, MC4R (Homo sapiens, UniProt P32245); assay: Competitive binding assay, [125I]-NDP-α-MSH, CHO cell membranes; parameters: expressed in transfected cells; host or cells: Chinese hamster ovary (CHO) cells; conditions: for Selectivity Binding IC50 3R/4R: ratio of IC50 hMC-3R / hMC-4R; for Selectivity Binding IC50 5R/4R: ratio of IC50 hMC-5R / hMC-4R
Experimental: The peptides of the present invention were evaluated for […] in receptor binding assay. Crude membrane preparations were obtained from Chinese hamster ovary cells expressing human MC3, MC4, and MC5 receptors. Cells were rinsed with phosphate-buffered saline (PBS) lacking CaCl2 or MgCl2 (Life Technologies, Gaithersburg, Md., USA), and then detached with enzyme-free dissociation media (Specialty Media, Lavellette, N.J., USA). Cells were pelleted at 2800×g for 10 minutes and resuspended in membrane buffer (20 mM Tris, pH 7.2, 5 mM ethylenediaminetetraacetic acid) with 5 μg/ml leupeptin, 5 μg/ml aprotinin, 40 μg/ml bacitracin, and 25 μg/m pefabloc (Boehringer Mannheim). The cells were […] with 10 strokes by using a motor-driven Teflon-coated pestle in a glass homogenizer at low speed. The resulting cell suspension was centrifuged at 4100×g, 4° C., for 20 minutes. The pellet was resuspended in fresh membrane buffer with protease inhibitors, aliquoted, snap-frozen in liquid nitrogen, and stored at −80° C. The resulting crude membranes were titrated to determine the optimal level necessary for performing binding studies. Results
Binding reactions (total volume=[…]) contained MBB (50 mM Tris, pH 7.2, 2 mM CaCl2, 1 mM MgCl2), 0.1% bovine serum albumin, crude membranes prepared from cells expressing human MC3, MC4, or MC5 receptor, 200 pM of [125I]-NDP-α-MSH (Amersham, Arlington Heighs, Ill., USA), and increasing concentrations of unlabeled test compounds dissolved in dimethylsulfoxide (final concentration=2%). Reactions were incubated for 1 hour without shaking and then filtered through 96-well filter plates (Packard), presoaked in 1% polyethyleneimine. Filters were washed 3 times with TNE buffer (50 mM Tris, pH 7.4, 5 mM ethylenediaminetetraacetic acid, 150 mM NaCl), dried and counted by using Microscint-20 in a Topcount scintillation counter (Packard). Nonspecific binding was determined in the presence of 2 μm of unlabeled NDP-α-MSH (Peninsula Laboratories). Active peptides were evaluated in three independent experiments.
Target sequence in this assay (P32245 whole entry): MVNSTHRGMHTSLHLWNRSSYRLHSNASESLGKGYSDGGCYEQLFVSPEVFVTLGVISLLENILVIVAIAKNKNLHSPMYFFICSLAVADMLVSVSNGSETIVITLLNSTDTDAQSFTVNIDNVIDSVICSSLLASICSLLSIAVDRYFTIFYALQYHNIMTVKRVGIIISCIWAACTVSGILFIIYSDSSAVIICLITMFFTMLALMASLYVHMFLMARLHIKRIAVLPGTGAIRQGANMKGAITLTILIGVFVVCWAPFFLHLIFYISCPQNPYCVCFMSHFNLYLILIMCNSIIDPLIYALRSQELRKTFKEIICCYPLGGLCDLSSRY

[2] = biological target: T1, MC4R; assay: cAMP assay in CHO cells expressing a human melanocortin receptor; type: cell-based; parameters: expressed in transfected cells; host or cells: Chinese hamster ovary (CHO) cells; conditions: for Selectivity cAMP EC50 3R/4R: ratio of EC50 hMC-3R / hMC-4R; for Selectivity cAMP EC50 5R/4R: ratio of EC50 hMC-5R / hMC-4R
Experimental: (§1) Chinese hamster ovary cells expressing a human melanocortin receptor were rinsed with calcium-and magnesium-free PBS (Life Technologies), and detached from the tissue culture flasks by 5-minutes incubation with enzyme-free dissociation buffer (S-014-B, Specialty Media). Cells were collected by centrifugation and resuspended in Earle's balanced salt solution (Life Technologies) with addition of 10 mM 4-(2-hydroxyethyl)-1-piperazineethanesulfonic acid (Hepes) buffer, pH 7.5, 5 mM MgCl2, 1 mM glutamine, and 1 mg/ml bovine serum albumin to concentration of 1-5×10^6 cells/ml. Subsequently, cells were counted and the cell suspension was treated with the phosphodiesterase inhibitor 3-isobutyl-1-methylxanthine (to concentration of 0.6 mM).
(§2) A test compound was dissolved in dimethyl sulfoxide (DMSO, 10^−3 to 10^−8 M), diluted with buffer and 0.1 volume of the solution was added to 0.9 volumes of the cell suspension (1 to 5×10^5 cells); final concentration of DMSO was 1%. After 45 minutes at room temperature, cells were lysed by incubation at 100° C. for 5 minutes to release accumulated cAMP. Accumulation of cAMP was measured in an aliquot of the cell lysate with the Amersham (Arlington Heights, Ill.) cAMP detection assay kit (RPA556). The amount of cAMP produced in response to a tested compound was compared to the amount of cAMP produced in response to α-MSH, defined as a 100% agonist. All active peptides were characterized in three independent experiments.
Target sequence in this assay (P32245 whole entry): as above

[3] = biological target: T2, MC5R (Homo sapiens, UniProt P33032); assay: as above; type: cell-based; parameters: expressed in transfected cells; host or cells: Chinese hamster ovary (CHO) cells; conditions: @ 5 (concentration unit not given); cAMP relative to α-MSH defined as 100% agonist
Experimental: as §1, §2
Target sequence in this assay (P33032 whole entry): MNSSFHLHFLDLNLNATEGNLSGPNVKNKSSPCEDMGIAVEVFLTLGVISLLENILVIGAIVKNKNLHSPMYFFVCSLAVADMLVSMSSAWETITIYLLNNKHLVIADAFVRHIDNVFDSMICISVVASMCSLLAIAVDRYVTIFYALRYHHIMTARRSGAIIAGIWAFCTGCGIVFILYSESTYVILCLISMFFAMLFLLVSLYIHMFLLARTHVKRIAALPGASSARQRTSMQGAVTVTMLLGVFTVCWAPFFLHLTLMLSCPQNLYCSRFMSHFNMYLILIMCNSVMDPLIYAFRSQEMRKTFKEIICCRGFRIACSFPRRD

[4] = tested on: AA rats; conditions: MTII by central infusion; cited from earlier work
[5] = tested on: C57BL/6J mice; assay: Ethanol consumption following central (i.c.v.) infusion of MC4R agonist; type: in vivo; conditions: for reduction of alcohol consumption: 20% ethanol, vs aCSF
Source text: The generation of Mc3r^−/− mice has been described (Chen, S. et al., Nature Genetics (2000) 26: 97-102). Mc3r^−/− mice are born at the expected frequency and are viable and fertile. […] Studies described below utilized male and female Mc3r^−/− and/or Mc3r^+/+ mice of a C57BL/6J genetic background, 8 to 12 weeks of age at the start of experiment. Non-littermate heterozygous (Mc3r^+/−) mice were bred, resulting in Mc3r^−/− and Mc3r ^+/+ F2 littermate mice. Mice were individually housed in polypropylene cages with wood-chip bedding and had ad libitum access to standard rodent chow (Teklad, Madison, Wis.) and water throughout the experiments except where noted. The colony room was maintained at approximately 22° C. with a 12h:12h light:dark cycle. All procedures used in the present research were in compliance with the National Institute of Health guidelines, and the protocols were approved by the University of North Carolina Animal Care and Use Committee.
Naïve mice were anesthetized with a cocktail of ketamine (117 mg/kg) and xylazine (7.92 mg/kg) and surgically implanted with a 26-gauge cannula (Plastic One, Roanoke, Va.) aimed at the left-lateral ventricle using the following stereotaxic coordinates: 0.2 mm posterior to bregma, 1.0 mm lateral to the midline, and 2.3 mm ventral to the skull surface. Mice were allowed to recover for approximately 2 weeks before experimental procedures were initiated. After experimental procedures, cannula placement was verified histologically. The i.c.v. infusions were given in a 1.0 μl volume with a 5.0 μl Hamilton syringe and infused manually over a one minute period. Mice were acclimated for approximately 2 weeks to drinking from two bottles (continuous 24 hour/day access), one containing water and the other containing 20% ethanol, and body weights were recorded weekly. Following acclimation, mice were distributed to groups based on the last 4-days of baseline ethanol consumption (g/kg/day).
Mice were weighed and ethanol, water, and food were removed from their cages two hours before the beginning of the dark cycle. For the study with i.c.v. infusion of MC4R agonist, C57B1/6J mice were given infusion of either 1.0 or 3.0 μg of the MC4R-selective agonist, cyclo(NH—CH2—CH2—CO-His-D-Phe-Arg-Trp-Glu)-NH2 (Compound A, Phoenix Pharmaceuticals, Inc., Belmont, Calif.) dissolved in aCSF (ns=7 and 8, respectively) or an equal volume of aCSF (n=10) one hour before the beginning of the dark cycle. The 20% ethanol solution, water, and food were returned immediately before the dark cycle and consumption measures were recorded 4 hours and 24 hours later. One-way (drug) ANOVAs were used to assess consumption of 20% ethanol following i.c.v. infusion of MC4R agonist or aCSF.

[6] = biological target: T1, MC4R; conditions: cited from earlier work
Target sequence in this assay (P32245 whole entry, species assumed): as the sequence (P32245 whole entry) above

[7] = biological target: T2, MC5R; conditions: cited from earlier work
Target sequence in this assay (P33032 whole entry, species assumed): as the sequence (P33032 whole entry) above

Selectivity Binding IC50 3R/4R [1]	Selectivity Binding IC50 5R/4R [1]	Selectivity cAMP EC50 3R/4R [2]	Selectivity cAMP EC50 5R/4R [2]	Compound	also measured
51.3	205	83	758	N=C(N)NCCC[C@@H]1NC(=O)[C@@H](Cc2ccccc2)NC(=O)[C@H](Cc2c[nH]cn2)NC(=O)CCC(=O)NCCC(C(N)=O)NC(=O)[C@H](Cc2c[nH]c3ccccc23)NC1=O (stereo partly shown) [Example 2] (H[dF]RW[ξDab]-NH2; linker N-5 via Suc)	–
22.5	50.7	17.8	–	N=C(N)NCCC[C@@H]1NC(=O)[C@@H](Cc2ccccc2)NC(=O)[C@H](Cc2c[nH]cn2)NC(=O)CCC(=O)NCC(C(N)=O)NC(=O)[C@H](Cc2c[nH]c3ccccc23)NC1=O (stereo partly shown) [Example 3] (H[dF]RW[ξDap]-NH2; linker N-5 via Suc)	cAMP Assay hMC-5R, % @ 5 [3]: 12% @ 5
10	54	54	229.7	N=C(N)NCCC[C@@H]1NC(=O)[C@@H](Cc2ccc(Cl)cc2)NC(=O)[C@H](Cc2c[nH]cn2)NC(=O)CCC(=O)NCCCCC(C(N)=O)NC(=O)[C@H](Cc2c[nH]c3ccccc23)NC1=O (stereo partly shown) [Example 4] (H[dPhe(4-Cl)]RW[ξK]-NH2; linker N-5 via Suc)	–
33.85	1538	97.3	1351.3	N=C(N)NCCC[C@@H]1NC(=O)[C@@H](Cc2ccccc2)NC(=O)[C@H](Cc2c[nH]cn2)NC(=O)CCC(=O)NCCCCC(C(N)=O)NC(=O)[C@H](Cc2ccc3ccccc3c2)NC1=O (stereo partly shown) [Example 5] (H[dF]R[2Nal][ξK]-NH2; linker N-5 via Suc)	–
48	750	70.4	703.7	N=C(N)NCCC[C@@H]1NC(=O)[C@@H](Cc2ccccc2)NC(=O)[C@H](Cc2c[nH]cn2)NC(=O)CCCCNC(=O)CCC(C(N)=O)NC(=O)[C@H](Cc2c[nH]c3ccccc23)NC1=O (stereo partly shown) [Example 6] ([Ava]H[dF]RW[ξE]-NH2; lactam N-6)	–
3.45	3.45	62.86	–	N=C(N)NCCC[C@@H]1NC(=O)[C@@H](Cc2ccccc2)NC(=O)[C@H](Cc2c[nH]cn2)NC(=O)CNC(=O)CCC(C(N)=O)NC(=O)[C@H](Cc2c[nH]c3ccccc23)NC1=O (stereo partly shown) [Example 9] (GH[dF]RW[ξE]-NH2; lactam N-6)	cAMP Assay hMC-5R, % @ 5 [3]: 15% @ 5

Second part, the compound before the results:

Compound	Selectivity Binding IC50 3R/4R [1]	Selectivity Binding IC50 5R/4R [1]	Selectivity cAMP EC50 3R/4R [2]	Selectivity cAMP EC50 5R/4R [2]	also measured
N=C(N)NCCC[C@@H]1NC(=O)[C@@H](Cc2ccccc2)NC(=O)[C@H](Cc2c[nH]cn2)NC(=O)CCC(=O)NCCCCC(C(N)=O)NC(=O)[C@H](Cc2c[nH]c3ccccc23)NC1=O (stereo partly shown) [Example 1] (H[dF]RW[ξK]-NH2; linker N-5 via Suc)	16.7	124	33	357	–
N=C(N)NCCC[C@@H]1NC(=O)[C@@H](Cc2ccccc2)NC(=O)[C@H](Cc2c[nH]cn2)NC(=O)CCCNC(=O)CCC(C(N)=O)NC(=O)[C@H](Cc2c[nH]c3ccccc23)NC1=O (stereo partly shown) [Example 7] ([GABA]H[dF]RW[ξE]-NH2; lactam N-6)	44	121.9	54.39	877	–
MTII	–	–	–	–	effect on voluntary ethanol drinking [4]: significantly reduces voluntary ethanol drinking
cyclo(NH—CH2—CH2—CO-His-D-Phe-Arg-Trp-Glu)-NH2 (FRWE; cyclic with beta-alanine linker, His, C-terminal amide; printed: Phe-Arg-Trp-Glu) [Compound A]	–	–	–	–	reduction of alcohol consumption ([5]; 1.0 μg i.c.v.): 67%; reduction of alcohol consumption ([5]; 3.0 μg i.c.v.): 86%; effect on ethanol drinking ([5]; C57BL/6J mice): significant reduction of ethanol drinking; less alcohol consumed than untreated controls ([5]; C57BL/6J mice, dose not given): up to 86%; selectivity for MC4R over MC3R [6]: 90 fold; selectivity for MC4R over MC5R [6]: greater than 2000 fold; binding and activation of MC5R [7]: extremely weak binding and activation of MC5R

Reference: patent publication US20070155660A1, “Inhibition of voluntary ethanol consumption with selective melanocortin 4-receptor agonists” (priority 2003, published 2007)
